Type in all cases: biochemical
The target in one test is JAK2 (Homo sapiens, UniProt O60674). The experiment in a line: JAK2 inhibition assay (radioactive enzyme assay, as for JAK3). To be noted: average Ki if more than one value determined. The gist of the method: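 Both kinases: poly(Glu)4Tyr substrate in 100 mM HEPES pH 7.4, 10 mM MgCl2, 1 mM DTT. Run 20 min at 25° C, TCA stop, filter-bound ³³P counted, Ki(app) fitted after background subtraction. JAK3: final [γ-³³P]ATP 5 μM, enzyme added as 2 nM solution. JAK2: final poly(Glu)4Tyr 15 μM, final ATP 12 μM.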

The target of another test is T1, JAK3 (Homo sapiens, UniProt P52333).
T1 sequence (P52333 1-1124): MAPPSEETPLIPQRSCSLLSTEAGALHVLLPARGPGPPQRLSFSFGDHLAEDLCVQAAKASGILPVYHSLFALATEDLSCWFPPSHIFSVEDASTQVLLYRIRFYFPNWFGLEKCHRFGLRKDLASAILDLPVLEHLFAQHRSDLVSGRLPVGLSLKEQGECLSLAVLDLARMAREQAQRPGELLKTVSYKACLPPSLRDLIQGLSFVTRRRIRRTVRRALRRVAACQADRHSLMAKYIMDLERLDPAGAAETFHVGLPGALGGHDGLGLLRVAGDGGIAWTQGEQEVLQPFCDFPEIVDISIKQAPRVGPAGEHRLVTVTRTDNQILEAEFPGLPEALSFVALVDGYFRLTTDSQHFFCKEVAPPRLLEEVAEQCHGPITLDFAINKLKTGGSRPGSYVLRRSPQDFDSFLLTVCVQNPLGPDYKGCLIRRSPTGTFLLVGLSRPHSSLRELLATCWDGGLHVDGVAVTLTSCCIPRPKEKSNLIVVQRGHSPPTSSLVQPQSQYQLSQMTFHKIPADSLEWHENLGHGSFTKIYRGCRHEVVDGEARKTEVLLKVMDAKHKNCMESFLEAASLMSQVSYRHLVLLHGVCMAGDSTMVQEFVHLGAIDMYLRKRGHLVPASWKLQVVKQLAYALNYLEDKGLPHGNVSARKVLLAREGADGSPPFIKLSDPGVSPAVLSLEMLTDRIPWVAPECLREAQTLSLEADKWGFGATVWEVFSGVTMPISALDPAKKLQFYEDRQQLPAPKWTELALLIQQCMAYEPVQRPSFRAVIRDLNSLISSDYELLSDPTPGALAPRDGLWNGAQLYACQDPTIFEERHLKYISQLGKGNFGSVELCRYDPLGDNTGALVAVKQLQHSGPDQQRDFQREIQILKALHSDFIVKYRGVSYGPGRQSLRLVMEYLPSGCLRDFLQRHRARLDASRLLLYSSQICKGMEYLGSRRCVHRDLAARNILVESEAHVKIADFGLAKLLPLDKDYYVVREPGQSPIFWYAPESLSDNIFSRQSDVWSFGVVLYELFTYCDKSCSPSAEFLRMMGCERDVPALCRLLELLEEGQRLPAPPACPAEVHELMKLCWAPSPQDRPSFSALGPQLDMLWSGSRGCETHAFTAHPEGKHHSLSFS
The experiment in a line: JAK3 inhibition assay (standard radioactive enzyme assay). To be noted: average Ki if more than one value determined.

The next test addresses ROCK (Homo sapiens, UniProt Q13464). The experiment in a line: ROCK inhibition assay, standard radioactive enzyme assay ("33P"). As for the experimental part: Some compounds were screened for their ability to inhibit ROCK using a standard radioactive enzyme assay. Assays were carried out in a solution containing 100 mM HEPES (pH 7.5), 10 mM MgCl2, 25 mM NaCl, 2 mM DTT, and 1.5% DMSO. Final substrate concentrations in the assay were 13 μM [γ-^33P] ATP (25 mCi ^33P ATP/mmol ATP, Perkin Elmer, Cambridge, Mass./Sigma Chemicals, St Louis, Mo.) and 27 μM Myelin Basic Protein (MBP). Final enzyme concentration in the assay was 5 nM ROCK. Assays were carried out at room temperature. 1.5 μl of DMSO stock containing serial dilutions of the compound of the present invention (concentrations ranging from 10 μM to 2.6 nM) was placed in a 96 well plate. 50 μl of Solution 1 (100 mM HEPES (pH 7.5), 10 mM MgCl2, […]) was added to the plate. The reaction was initiated by addition of 50 μl of Solution 2 (100 mM HEPES (pH 7.5), 10 mM MgCl2, 4 mM DTT, […] and 10 nM ROCK). After 2 hours the reaction was quenched with 50 μL of 30% trichloroacetic acid (TCA, Fisher) containing 9 mM ATP. Transfer of 140 μL of the quenched reaction to a glass fiber filter plate (Corning, Cat. No. 3511) was followed by washing 3 times with 5% TCA. 50 μL of Optima Gold scintillation fluid (Perkin Elmer) was added and the plates were counted on a Top Count (Perkin Elmer). After removing mean background values for all of the data points the data was fit using Prism software to obtain a Ki(app).

In another test the target is T2, ROCK I (AA 6-553) (Homo sapiens, UniProt Q13464).
T2 construct: ROCK I (AA 6-553)
Description: ROCK inhibition assay, standard coupled enzyme system ("Enzyme"). To be noted: enzyme-linked assay. The gist of the method: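 ROCK I (AA 6-553) at 45 nM and 30 °C with 45 μM ATP and 200 μM peptide, in 100 mM HEPES pH 7.5, 10 mM MgCl2, 25 mM NaCl, 2 mM DTT, 1.5% DMSO. ADP output read by a PK/LDH coupled system: 2.5 mM PEP, 350 μM NADH, 30 μg/ml PK, 10 μg/ml LDH.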

Test [1] deals with T3, full length Aurora-A (AA 1-403) (Homo sapiens, UniProt O14965).
T3 construct: full length Aurora-A (AA 1-403)
T3 sequence (O14965 1-403): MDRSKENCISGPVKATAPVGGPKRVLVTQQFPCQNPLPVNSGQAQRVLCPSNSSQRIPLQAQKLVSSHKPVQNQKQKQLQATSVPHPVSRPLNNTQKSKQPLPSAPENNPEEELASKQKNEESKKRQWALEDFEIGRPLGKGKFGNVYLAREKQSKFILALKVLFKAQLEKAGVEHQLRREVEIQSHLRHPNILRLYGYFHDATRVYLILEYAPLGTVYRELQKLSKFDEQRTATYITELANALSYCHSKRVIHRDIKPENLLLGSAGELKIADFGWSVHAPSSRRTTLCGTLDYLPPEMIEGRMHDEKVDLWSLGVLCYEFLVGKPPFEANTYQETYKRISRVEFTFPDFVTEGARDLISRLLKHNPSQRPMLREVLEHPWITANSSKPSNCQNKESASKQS
Description: Aurora-A inhibition assay, standard coupled enzyme system. To be noted: average Ki if more than one value determined.

The target of another test is Aurora-B (Homo sapiens, UniProt Q96GD4). The experiment in a line: Aurora-B inhibition assay, radioactive assay. To be noted: average Ki if more than one value determined. In a few lines:
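Radiometric [γ-33P]ATP kinase assay run as described for JAK3/ROCK but with Aurora-B protein; 33P incorporation into substrate measured by filter capture and scintillation counting after TCA quench. Background-subtracted data fit to give Ki(app).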

Another test concerns the target T4, Aurora-C (Homo sapiens, UniProt Q9UQB9).
T4 sequence (Q9UQB9 1-309): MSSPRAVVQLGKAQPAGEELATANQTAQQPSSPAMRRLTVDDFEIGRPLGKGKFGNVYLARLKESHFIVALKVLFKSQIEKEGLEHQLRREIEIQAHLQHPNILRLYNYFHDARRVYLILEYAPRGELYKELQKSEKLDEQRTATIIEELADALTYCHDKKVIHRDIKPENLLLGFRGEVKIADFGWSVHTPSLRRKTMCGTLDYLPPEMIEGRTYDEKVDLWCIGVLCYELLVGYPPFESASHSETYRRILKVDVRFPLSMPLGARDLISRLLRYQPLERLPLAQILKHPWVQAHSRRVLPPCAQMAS
The experiment in a line: Aurora-C inhibition assay, coupled enzyme system as for Aurora-A. To be noted: average Ki if more than one value determined. In a few lines:
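Coupled PK/LDH NADH-depletion assay with 35 nM enzyme, 200 μM ATP and 800 μM LRRASLG peptide in 100 mM HEPES pH 7.5, 10 mM MgCl2, 25 mM NaCl, 1 mM DTT, 3% DMSO at 30 °C. Compound (0.002-30 μM) was preincubated 10 min before ATP start; rates over 10 min gave Ki by nonlinear regression. Aurora-C run the same way.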

pKi: −log10 of the molar value. Where two headings read alike, the source gives them in different places.

Chain of JAK2 (O60674 whole entry, species assumed): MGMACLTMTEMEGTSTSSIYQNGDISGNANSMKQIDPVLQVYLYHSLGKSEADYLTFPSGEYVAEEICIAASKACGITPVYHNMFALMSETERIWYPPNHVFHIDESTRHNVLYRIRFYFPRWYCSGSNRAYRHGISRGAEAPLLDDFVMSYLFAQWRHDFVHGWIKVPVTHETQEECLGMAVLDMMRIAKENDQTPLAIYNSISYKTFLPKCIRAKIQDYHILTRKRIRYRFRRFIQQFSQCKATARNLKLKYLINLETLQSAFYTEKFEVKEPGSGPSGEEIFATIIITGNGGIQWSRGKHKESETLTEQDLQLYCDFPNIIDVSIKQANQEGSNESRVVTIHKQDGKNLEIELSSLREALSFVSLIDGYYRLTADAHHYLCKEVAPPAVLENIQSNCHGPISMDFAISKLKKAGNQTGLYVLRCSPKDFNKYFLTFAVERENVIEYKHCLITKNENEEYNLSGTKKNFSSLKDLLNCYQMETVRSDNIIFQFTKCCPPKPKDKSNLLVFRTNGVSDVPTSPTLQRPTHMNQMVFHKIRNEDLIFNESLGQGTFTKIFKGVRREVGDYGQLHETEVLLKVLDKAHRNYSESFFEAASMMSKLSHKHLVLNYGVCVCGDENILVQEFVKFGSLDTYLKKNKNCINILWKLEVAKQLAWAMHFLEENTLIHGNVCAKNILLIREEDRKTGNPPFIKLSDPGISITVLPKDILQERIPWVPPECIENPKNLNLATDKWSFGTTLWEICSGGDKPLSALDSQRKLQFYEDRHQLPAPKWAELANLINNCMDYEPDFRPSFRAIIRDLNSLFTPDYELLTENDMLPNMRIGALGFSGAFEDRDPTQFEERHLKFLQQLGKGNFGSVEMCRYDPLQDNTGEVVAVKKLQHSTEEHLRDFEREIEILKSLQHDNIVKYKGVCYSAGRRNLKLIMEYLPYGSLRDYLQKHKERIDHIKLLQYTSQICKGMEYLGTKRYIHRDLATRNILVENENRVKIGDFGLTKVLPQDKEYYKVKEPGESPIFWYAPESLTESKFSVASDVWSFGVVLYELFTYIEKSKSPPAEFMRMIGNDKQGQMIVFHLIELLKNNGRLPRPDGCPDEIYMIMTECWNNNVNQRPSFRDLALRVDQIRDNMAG
Chain of Aurora-B (Q96GD4 whole entry): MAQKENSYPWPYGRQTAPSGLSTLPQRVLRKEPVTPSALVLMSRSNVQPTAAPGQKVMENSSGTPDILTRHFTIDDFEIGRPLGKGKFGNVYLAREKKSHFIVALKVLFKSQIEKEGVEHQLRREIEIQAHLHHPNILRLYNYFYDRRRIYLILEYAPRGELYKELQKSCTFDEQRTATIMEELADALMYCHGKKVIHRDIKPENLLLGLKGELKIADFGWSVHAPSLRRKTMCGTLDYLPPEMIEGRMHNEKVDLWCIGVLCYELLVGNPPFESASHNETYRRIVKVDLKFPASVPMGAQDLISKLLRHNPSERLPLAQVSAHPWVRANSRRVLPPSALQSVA
Chain of ROCK (Q13464 whole entry): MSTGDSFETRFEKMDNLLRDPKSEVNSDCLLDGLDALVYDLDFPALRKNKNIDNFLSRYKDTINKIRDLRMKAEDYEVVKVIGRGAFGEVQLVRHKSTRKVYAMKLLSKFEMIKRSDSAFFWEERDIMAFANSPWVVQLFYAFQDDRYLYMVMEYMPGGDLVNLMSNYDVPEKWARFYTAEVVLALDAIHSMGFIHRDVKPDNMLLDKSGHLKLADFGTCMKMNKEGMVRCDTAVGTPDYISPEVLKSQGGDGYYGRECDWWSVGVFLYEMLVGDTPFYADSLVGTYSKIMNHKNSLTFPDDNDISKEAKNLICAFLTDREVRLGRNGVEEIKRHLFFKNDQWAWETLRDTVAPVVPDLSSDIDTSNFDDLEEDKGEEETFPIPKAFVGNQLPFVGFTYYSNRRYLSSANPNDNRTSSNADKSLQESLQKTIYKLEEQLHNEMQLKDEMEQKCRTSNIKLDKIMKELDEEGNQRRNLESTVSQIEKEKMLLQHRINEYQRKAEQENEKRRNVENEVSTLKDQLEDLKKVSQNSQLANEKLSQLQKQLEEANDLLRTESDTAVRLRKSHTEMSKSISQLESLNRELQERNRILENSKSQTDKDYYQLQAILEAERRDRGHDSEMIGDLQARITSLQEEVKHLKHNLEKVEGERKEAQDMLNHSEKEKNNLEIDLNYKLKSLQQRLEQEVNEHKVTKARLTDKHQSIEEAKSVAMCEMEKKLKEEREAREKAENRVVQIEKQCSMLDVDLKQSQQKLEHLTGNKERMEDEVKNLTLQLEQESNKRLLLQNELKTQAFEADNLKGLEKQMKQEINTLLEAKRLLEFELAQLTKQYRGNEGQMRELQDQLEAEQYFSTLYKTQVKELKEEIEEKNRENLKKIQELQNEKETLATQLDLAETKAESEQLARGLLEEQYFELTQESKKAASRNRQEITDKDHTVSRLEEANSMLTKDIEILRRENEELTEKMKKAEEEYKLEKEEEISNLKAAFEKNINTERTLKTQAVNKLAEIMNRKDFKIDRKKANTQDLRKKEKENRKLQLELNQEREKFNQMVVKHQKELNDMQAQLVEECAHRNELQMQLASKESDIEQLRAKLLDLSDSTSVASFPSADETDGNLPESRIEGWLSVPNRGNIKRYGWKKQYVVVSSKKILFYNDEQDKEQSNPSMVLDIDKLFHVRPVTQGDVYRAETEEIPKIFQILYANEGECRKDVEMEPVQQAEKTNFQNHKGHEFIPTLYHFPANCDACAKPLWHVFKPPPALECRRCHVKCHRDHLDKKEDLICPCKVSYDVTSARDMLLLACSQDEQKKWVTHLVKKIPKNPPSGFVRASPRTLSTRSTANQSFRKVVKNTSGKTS
T2 sequence (Q13464 6-553, species assumed): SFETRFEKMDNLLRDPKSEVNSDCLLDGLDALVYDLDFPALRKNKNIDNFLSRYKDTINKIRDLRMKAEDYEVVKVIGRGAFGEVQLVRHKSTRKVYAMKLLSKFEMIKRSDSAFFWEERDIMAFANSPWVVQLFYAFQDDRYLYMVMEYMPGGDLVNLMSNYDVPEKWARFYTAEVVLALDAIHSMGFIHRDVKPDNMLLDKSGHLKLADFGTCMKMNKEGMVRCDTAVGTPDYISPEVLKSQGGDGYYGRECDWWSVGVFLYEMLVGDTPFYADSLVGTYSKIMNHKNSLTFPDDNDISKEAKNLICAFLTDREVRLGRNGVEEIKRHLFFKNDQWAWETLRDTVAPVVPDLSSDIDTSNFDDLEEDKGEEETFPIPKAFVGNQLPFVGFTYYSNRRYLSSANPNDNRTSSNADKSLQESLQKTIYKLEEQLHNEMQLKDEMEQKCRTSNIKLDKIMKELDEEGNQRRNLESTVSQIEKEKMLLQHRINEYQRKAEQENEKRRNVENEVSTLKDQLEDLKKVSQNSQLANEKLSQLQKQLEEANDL

With `c1ccc(-c2cccc(CNc3cc(-c4c[nH]c5ncccc45)ncn3)c2)cc1` [Compound 23], the pKi – broadly, the negative decadic logarithm of the Ki, by convention in mol/L – at JAK2 was 5.30 to 6.30; at JAK3, 5.30 to 6.30; on ROCK it was above 6.30.

Turning to `C[C@@H]1CCN(Cc2ccccc2)CC1N(C)c1cc(-c2c[nH]c3ncccc23)ncn1` (stereo partly drawn) [Compound 15], the pKi at JAK2, on JAK3 and at ROCK was 5.30 to 6.30 throughout.

`Fc1cc(F)cc(CNc2cc(-c3c[nH]c4ncccc34)ncn2)c1` [Compound 29]: the pKi at JAK2, on JAK3 and at ROCK was above 6.30 throughout.

As for `CC(=O)N1CCCN(c2nccc(-c3c[nH]c4ncc(Cl)cc34)n2)CC1` [Compound 5], the pKi at JAK2 was above 6.30; on JAK3 it was above 6.30; on ROCK it was 5.30 to 6.30.

For `CN(Cc1ccccc1)c1cc(-c2c[nH]c3ncccc23)ncn1` [Compound 26], the pKi on JAK2, at JAK3 and at ROCK was above 6.30 throughout.

Turning to `Clc1cccc(CNc2cc(-c3c[nH]c4ncccc34)ncn2)c1` [Compound 21], the pKi on JAK2, on JAK3 and on ROCK was above 6.30 throughout.

Turning to `CC(=O)N1CCCN(c2nccc(-c3c[nH]c4ncc(C(N)=O)cc34)n2)CC1` [Compound 1], the results for the pKi at JAK2, at JAK3 and at ROCK were above 6.30, above 6.30 and 5.30 to 6.30, respectively.

Turning to `FC(F)(F)c1cccc(CNc2cc(-c3c[nH]c4ncccc34)ncn2)c1` [Compound 22], the pKi on JAK2, at JAK3 and at ROCK was above 6.30 in each case.

For the molecule `Fc1cccc(CNc2cc(-c3c[nH]c4ncccc34)ncn2)c1` [Compound 16], the pKi at JAK2, at JAK3 and at ROCK was above 6.30 throughout.

`CS(=O)(=O)c1cccc(-c2c[nH]c3ncc(-c4ccccc4)cc23)c1` [Compound 218]: the pKi (at ROCK I (AA 6-553); in test [1]; on ROCK) was above 6.30 in each case.

As for `Brc1cnc2[nH]c(-c3ccccc3)c(-c3ccc(N4CCOCC4)cc3)c2c1` [Compound 217], the pKi at ROCK I (AA 6-553) was 5.30 to 6.30; in test [1], above 6.30; at ROCK, 5.30 to 6.30.

On to `COc1cc(-c2c[nH]c3ncccc23)ccc1C(N)=O` [Compound 31, 2-Methoxy-4-(1H-pyrrolo[2,3-b]pyridin-3-yl)-benzamide], for which the pKi (in test [1]; on ROCK (Ki(app))) was above 6.30 in each case.

On to `CN(C)C(=O)c1ccc(-c2c[nH]c3ncc(-c4ccccc4)cc23)cc1` [Compound 219], for which the pKi at ROCK I (AA 6-553) is 5.30 to 6.30; in test [1], above 6.30; at ROCK, 5.30 to 6.30.

For the molecule `Brc1cnc2[nH]c(-c3ccccc3)c(-c3ccccc3)c2c1` [Compound 211], the figures for the pKi (in test [1]; at ROCK) were above 6.30 and 5.30 to 6.30, respectively.

Regarding `COc1cnc2[nH]cc(-c3cc(NCc4ccccc4)ncn3)c2c1` [Compound 12], the pKi on JAK2, at JAK3 and at ROCK was above 6.30 throughout.

As to `C[C@H](Nc1nc(-c2c[nH]c3ncc(Cl)cc23)ncc1F)C(=O)NCCc1ccc(S(N)(=O)=O)cc1` [Compound 446], the pKi at ROCK I (AA 6-553) is 5.30 to 6.30; on JAK2, 5.30 to 6.30; in test [1], above 6.30; at Aurora-B it was above 6.30; at Aurora-C, above 6.30.

For the molecule `COc1cccc(-c2c[nH]c3ncc(-c4ccccc4)cc23)c1` [Compound 214], the pKi (in test [1]; on ROCK) was 5.30 to 6.30 each time.

Consider `Cc1cc(N[C@@H](C)C(=O)NCCNS(C)(=O)=O)nc(-c2c[nH]c3ncc(Cl)cc23)n1` [Compound 450], for which the pKi on ROCK I (AA 6-553) is 5.30 to 6.30; at JAK2 it was 5.30 to 6.30; in test [1], above 6.30; at Aurora-B it was above 6.30; at Aurora-C it was above 6.30.

As to `CCOc1cccc(-c2c[nH]c3ncc(-c4ccccc4)cc23)c1` [Compound 215], the pKi (in test [1]; at ROCK) was 5.30 to 6.30 each time.

With `COc1ccc(OC)c(-c2c[nH]c3ncc(-c4ccccc4)cc23)c1` [Compound 216], the pKi in test [1] was above 6.30; on ROCK, 5.30 to 6.30.

As for `CCc1cnc(-c2c[nH]c3ncc(Cl)cc23)nc1N[C@@H](C)c1ccc(F)cc1` [Compound 386], the pKi at ROCK I (AA 6-553) was 5.30 to 6.30; at JAK2, above 6.30; in test [1], above 6.30; on Aurora-B, above 6.30; on Aurora-C it was above 6.30.

In the case of `c1ccc(-c2cnc3[nH]cc(-c4ccccc4)c3c2)cc1` [Compound 213], the pKi is above 6.30 in test [1] and 5.30 to 6.30 on ROCK.
